Assay type in all cases: cell-based
Assay [1] relates to Human colon cancer cells, cell line HT29. The experiment in a line: Uptake of imaging marker FDG after mibefradil, HT29. As to conditions: FDG 60 minutes after removal. As to the method: The efficacy of the uptake of imaging markers after treatment with a cell cycle inhibitor was determined. Human colon cancer cells, cell line HT29, were first incubated for 24 hours with the cell cycle inhibitor mibefradil at concentrations of 5 μM (5 uM-FDG-HT29) and 10 μM (10 uM-FDG-HT29). After 24 hours of incubation with the mibefradil, the HT29 cells were removed from mibefradil contact. After 60 minutes of being removed from mibefradil contact, the imaging marker 2-deoxy-2-(^18F)fluoro-D-glucose (hereinafter, “FDG”) was administered.
With a concentration of 10 μM of mibefradil, the increase in uptake of FDG was about 100% as compared to uptake of cells not incubated with mibefradil.

In another assay the test system is A10 cells. The experiment in a line: Cell cycle analysis by flow cytometry and BUdR staining, with nocodazole block. As to conditions: for cell cycle arrest point: A10 cells treated 24 hours with T channel blocker before adding nocodazole, FIG. 3. As for the experimental part:
Cell cycle analysis was performed using flow cytometry and BUdR staining. In FIG. 3, “Con” represents untreated, control cells. All other cell cultures were treated with nocodazole, which interferes with microtubule polymerization and blocks the cell cycle during M phase. […] Therefore, cell cultures were treated for 24 hours with T channel calcium channel blockers mibefradil (mib), nickel (Ni) or TTL-1177 (a proprietary compound owned by the assignee Tau Therapeutics), before adding nocodazole.
In general terms: Flow cytometry measures light scatter and fluorescence of single cells or particles in a stream.

The test system of assay [2] is human prostate cancer cells. The experiment in a line: Cell cycle progression after mibefradil incubation, prostate cancer cells. As to the method:
(§1) To measure the efficacy of the cell cycle inhibitor mibefradil at stopping progression through the cell cycle, human lung cancer cells of cell line A549 and human prostate cancer cells of cell line were incubated with 10 μM mibefradil for 48 hours (M48H). […] Further data was collected by incubating the same cell lines with 10 μM of mibefradil for 18 hours followed by a 12 hour washout followed by another […] incubation with mibefradil (M18-12-18h).

Assay [3] deals with human prostate cancer cells of the PC3 cell line. As to the kind of experiment: Uptake of imaging marker 3H-FDG after mibefradil, PC3. As to conditions: PC3, 10 μM mibefradil for 72 hours; data not shown. As for the experimental part: (§2) The uptake of an imaging marker was also determined in human lung cancer cells of cell line A549. A549 cells were incubated with 5 μM, 10 μM and 15 μM concentrations of the cell cycle inhibitor mibefradil for 24 hours. After 24 hours of incubation with the mibefradil, the A549 cells were removed from mibefradil contact. After 30 minutes of being removed from mibefradil contact, the imaging marker tritiated FDG (hereinafter “3H-FDG”) was administered. […] Although not shown, incubation of human prostate cancer cells of the PC3 cell line with 10 μM mibefradil for 72 hours increased uptake of the subsequently introduced imaging marker 3H-FDG by about 60%.

The test system of assay [4] is human lung cancer cells of cell line A549. The experiment in a line: Cell cycle progression after mibefradil incubation, A549. As for the experimental part:
as §1

In assay [5] the test system is human prostate cancer cells of cell line PC3. The experiment in a line: Effect of mibefradil on the cell cycle of PC3 cells. As to conditions: PC3, 5 μM or 10 μM for 24 hours or 48 hours; effect of increasing concentration and contact time; FIG. 5. As to the method:
To measure the effect of mibefradil on the cell cycle of human prostate cancer cells of cell line PC3, PC3 cells were incubated with varying concentrations of mibefradil for varying times. The PC3 cells were incubated with either a 5 μM concentration or a 10 μM concentration for either 24 hours or 48 hours.

Assay [6] has as its system human lung cancer cells of cell line A549. The experiment in a line: Uptake of imaging marker 3H-FDG after mibefradil, A549. As to conditions: 3H-FDG 30 minutes after removal. As to the method:
as §2

Take `COCC(=O)O[C@]1(CCN(C)CCCc2nc3ccccc3[nH]2)CCc2cc(F)ccc2[C@@H]1C(C)C` [mibefradil]: the “uptake of the imaging marker FDG vs cells not incubated” value in assay [1] (HT29, 5 μM and 10 μM mibefradil 24 hours, FIG. 6) is “increased”. Further, the “increase in uptake of FDG vs cells not incubated” value in assay [1] (HT29, 10 μM mibefradil 24 hours) is recorded as “about 100%”. Further, the “cell cycle arrest point” value with A10 cells was “arrested cells at the cell cycle checkpoint between G0 and G1”. Besides, the “proportion of cells in the G1 phase vs control” value in assay [2] (10 μM for 18 hours, 12 hour washout, another 8 hour incubation (M18-12-18h)) is recorded as “greater proportion of cells in the G1 phase”; in assay [4] (A549, 10 μM for 18 hours, 12 hour washout, another 8 hour incubation (M18-12-18h)) it was “greater proportion of cells in the G1 phase”. Further, the “proportion of cells in the G1 phase” value in assay [2] (10 μM mibefradil for 48 hours (M48H), FIG. 4) was “increased the proportion of cells in the G1 phase”; in assay [4] (A549, 10 μM mibefradil for 48 hours (M48H), FIG. 4) it was “increased the proportion of cells in the G1 phase”; in assay [5], “increases the proportion of cells in the G1 phase”. The “increase in uptake of 3H-FDG” value in assay [3] is “about 60%”. The “uptake of 3H-FDG” value in assay [6] (A549, 5 μM, 10 μM and 15 μM mibefradil 24 hours, FIG. 7) is “increase in uptake being observed at all concentrations”. Besides, in assay [6] (A549, 24 hours incubation, 5, 10, 15 μM tested), the “mibefradil concentration of maximal 3H-FDG uptake” value was found to be 5 µM.
Turning to `[Ni]` [nickel], the “cell cycle arrest point” value with A10 cells is “arrested cells at the cell cycle checkpoint between G0 and G1”.
For the compound `COC(=O)Nc1nc2ccc(C(=O)c3cccs3)cc2[nH]1` [nocodazole], in the assay with A10 cells (A10 cells, nocodazole alone, flow cytometry), the cell cycle block result is recorded as “blocked cell cycle transit through M phase”.
